Experiment [1] concerns HeLa (Human cervical cancer). In words: MTT cytotoxicity assay, HeLa. The class given is cell-based. To be noted: 50% cell proliferation inhibitory concentration after 48 h of compound treatment, compounds. The protocol:
(§1) MTT assay was performed as described earlier. Cells were plated at a density of 1 × 10^4 cells/well in 100 µL Dulbecco’s Modified Eagle Medium (DMEM)/Minimum Essential Media (MEM) medium, supplemented with 10% FBS in 96-well plates for 24 h. After incubation, cells were treated with standard doxorubicin and test compounds for 48 h. After 48 h of treatment, 10 µL MTT (3-(4,5-dimethylthiazol-2 yl)-2,5-diphenyl tetrazolium bromide) (5 mg/mL) were added to each well and the plates were further incubated for 4 h. After 4 h, 100 µL DMSO was added to each well and absorbance at 570 nm wavelength was recorded spectrophotometrically.
(Formazan colour is commonly taken as a measure of viable cells.)

Experiment [2] relates to A549 (Human lung cancer). Briefly: MTT cytotoxicity assay, A549. The experiment is classed as cell-based. To be noted: 50% cell proliferation inhibitory concentration after 48 h of compound treatment, compounds. The protocol: as §1
Experiment [3] relates to MCF-7 (Human breast cancer). Briefly: MTT cytotoxicity assay, MCF-7. Particulars: MCF7, 50% cell proliferation inhibitory concentration after 48 h of compound treatment, compounds. The class given is cell-based. Here is the method: as §1
In experiment [4] the test system is DU-145 (Human prostate cancer). Briefly: MTT cytotoxicity assay, DU-145. Particulars: 50% cell proliferation inhibitory concentration after 48 h of compound treatment, compounds. The class given is cell-based. The protocol: as §1
Experiment [5] has as its system HEK-293 (Normal cell line, Human embryonic kidney). In words: MTT cytotoxicity assay, HEK-293. The class given is cell-based. To be noted: compounds. Here is the method:
as §1

Experiment [6] concerns A549 cells. In words: Annexin V-FITC assay for apoptosis. The class given is cell-based, human. Particulars: A549, 24 h; for total apoptosis: control 1.12%. Here is the method:
A549 cells were seeded in six-well plates and incubated for 24 h. After incubation, cells were treated with doxorubicin at 2 µM and compound 21 at 1 and 2 µM concentrations and further incubated for 24 h. After 24 h treatment, cells were harvested by trypsinization. After harvesting, cells were washed with PBS at 5000 rpm. After washing, cells were stained with Annexin-V and propidium iodide using Annexin-V apoptosis detection kit (Sigma-Aldrich). Annexin V-FITC assay was performed as described earlier.

Experiment [7] relates to Poly (ADP-ribose) polymerase (PARP). Briefly: Immunoblot assay for PARP cleavage. The experiment is classed as cell-based, human. To be noted: A549, 21 at 1 and 2 µM for 48 h; doxorubicin 1 µM. An excerpt: (§2) Following treatments, cells were washed twice with PBS and lysed in 1× SDS sample buffer. Proteins were separated on 10% SDS-polyacrylamide gels and transferred onto nitrocellulose membranes. Membranes were washed twice with tween Tris-buffered saline before blocking nonspecific binding with 5% nonfat dry milk (Blotto, Santa Cruz Biotechnology, Dallas, TX, USA) or 3% bovine serum albumin. Anti-Poly ADP-ribose Polymerase (PARP) (11835238001-Roche) antibody, that detects total and cleaved PARP was used at 1:1000 dilutions, and membranes were incubated for 2 h at room temperature. Anti-Cyclin D1 (C7464, Sigma Aldrich) and anti-CDK4 (SAB140559, Sigma Aldrich) were detected similar to PARP protein. Membranes were washed three times, and detection was performed using horseradish peroxidase-conjugated secondary antibody as described previously.

Experiment [8] relates to CDK4 and Cyclin D1. In words: Immunoblot assay for CDK4 and Cyclin D1. The class given is cell-based, human. Particulars: A549, 21 at 1 and 2 µM for 48 h; doxorubicin 1 µM.
Description: as §2
A general note: A western blot detects proteins with antibodies after separation by electrophoresis.

The subject of experiment [9] is human cancer cell lines. In words: MTT cytotoxicity assay, panel of cancer cell lines. The class given is cell-based. To be noted: HeLa, MCF-7 and DU-145, range over the cell lines, read-out: IC50 on additional cancer cell lines. Here is the method: as §1
Experiment [10] has as its system A549 cells. Briefly: Cell cycle analysis by flow cytometry. The experiment is classed as cell-based, human. Particulars: A549, 24 h. Here is the method: Flow cytometric analysis (FACS) was performed to evaluate the cell cycle arrest. A549 cells were seeded, incubated for 24 h and then treated with doxorubicin at 2 µM and compound 21 at 1 and 2 µM concentrations for 24 h. After that, cells were harvested and washed with phosphate buffered saline (PBS) followed by fixation in ice cold 70% ethanol. After fixation cells were incubated with RNase A (0.1 mg/mL) at 37 °C for 30 min and stained with propidium iodide (Sigma Aldrich, St. Louis, MO, USA) (50 μg/mL) for 30 min on ice in dark. Cell cycle analysis was performed by flow cytometry (Becton Dickinson FACS Caliber instrument).
A general note: In flow cytometry, cells or beads pass a laser one at a time.

Experiment [11] deals with A549 cells. In words: Hoechst staining for apoptosis. Particulars: A549, 1 and 2 µM, 48 h. The class given is cell-based, human. The protocol:
A549 cells were seeded on cover slips and incubated for 24 h. After incubation, cells were treated with doxorubicin at 2 µM and compound 21 at 1 and 2 µM concentrations for 48 h. After 48 h treatment, Hoechst staining was performed using H33258 dye. Florescence images were captured by Olympus microscope using 10X lens.

In experiment [12] the test system is caspase-3. In words: Caspase-3 assay (fluorimetric, Ac-DEVD-AMC). The class given is cell-based, human. Particulars: A549, 2 µM. Here is the method: Following treatment, cell lysates were washed twice with phosphate-buffered saline and dissolved in lysis buffer (50 mM HEPES (pH 7.4) containing 5 mM CHAPS and 5 mM DTT) for 15 min on ice. Later, cells were centrifuged at 14,000× g for 15 min, under cold conditions, and collected the clear supernatant. The supernatant was added to assay buffer (20 mM HEPES (pH 7.4), 2 mM EDTA, 0.1% CHAPS, and 5 mM DTT) containing caspase 3 substrate (Ac-DEVD-AMC, 40 μM) in a final volume of 100 μL as described earlier. The incubation was performed for 1 h at 37 °C with readings recorded at 5-min intervals. Fluorescence released by AMC was measured at 360-nm and 460-nm excitation and emission wavelengths, respectively. Values were normalized to protein concentration and expressed as fold change of activity relative to DMSO control.

The mark [13] stands for this setting: Homo sapiens, 2 µM, read-out: live (viable) cells (LL).
Where [14] appears, read: Homo sapiens, HEK293, 48 h, after 48 h of compound treatment.

The record followed here is publication PMC6630668, “Comprehensive Analysis of Secondary Metabolites in Usnea longissima (Lichenized Ascomycetes, Parmeliaceae) Using UPLC-ESI-QTOF-MS/MS and Pro-Apoptotic Activity of Barbatic Acid” (Molecules, 2019).

SMILES strings stand for the structures.

In general, IC50 refers to the midpoint of a concentration-inhibition curve.

With `CC(=O)C1=C(O)C=C2Oc3c(C(C)=O)c(O)c(C)c(O)c3C2(C)C1=O` (single isomer, unassigned; (+)) [compound 22, (+)-usnic acid], the IC50 in experiment [1] came out at 18.9 ± 2.06 µM; in experiment [2] it was 13.8 ± 1.11 µM; in [3], 19.2 ± 2.05 µM; in experiment [4] it was 24.2 ± 0.99 µM; in experiment [5] (Homo sapiens, HEK293, after 48 h of compound treatment) it was 125 ± 1.98 µM.

As to `COc1cccc2c1C(=O)c1c(O)c3c(c(O)c1C2=O)C[C@@](O)(C(=O)CO)C[C@@H]3O[C@H]1C[C@H](N)[C@H](O)[C@H](C)O1` [Doxorubicin, doxorubicin, reference compound], the IC50 was 1.55 ± 1.32 µM in experiment [1], 1.95 ± 0.97 µM in experiment [2], 1.62 ± 0.36 µM in experiment [3] and 1.51 ± 0.84 µM in [4]. For the same compound, in experiment [6] (2 µM), the “early apoptotic cells (LR)” value was 22.3%. Also, the “late apoptotic cells (UR)” value in experiment [6] (2 µM) amounted to 9.79%. Further, the “necrotic cells (UL)” value in experiment [6] (2 µM) is listed as 0.12%. For the same compound, the viability at 2 µM in experiment [6] (setting [13]) was 67.8%. The “PARP cleavage (in words)” value in experiment [7] is on record as “robust cleavage of PARP protein”. Also, the “CDK4 and Cyclin D1 protein levels (in words)” value in experiment [8] is “accumulated”.

Take `C[C@@H]1C(=O)OC(CCCCCCCCCCCCC[C@@H](C)O)C1C(=O)O` (stereo partly drawn) [compound 19, 18R-hydroxy-dihydroalloprotolichesterinic acid]: the IC50 in [1] was 22.7 ± 0.97 µM; in experiment [2], 20.2 ± 1.99 µM; in experiment [3] it was 20 ± 0.74 µM; in experiment [4] it was 27 ± 2.92 µM; in experiment [5] (setting [14]) it was 55.9 ± 1.55 µM.

On to `CC1=C(C(=O)O)[C@H](CCCCCCCCCCCCCC(C)O)OC1=O` (stereo partly drawn) [compound 20, neuropogolic acid], for which the half-maximal inhibitory concentration (IC50) turned out to be 23.6 ± 0.74 µM in experiment [1]; 19.1 ± 3.86 µM in experiment [2]; 22.3 ± 4.05 µM in experiment [3]; 26.1 ± 1.09 µM in experiment [4]; 113 ± 3.82 µM in [5] (setting [14]).

In the case of `COc1cc(C)c(C(=O)Oc2cc(C)c(C(=O)O)c(O)c2C)c(O)c1C` [compound 21, barbatic acid], the IC50 in [1] is 3.02 ± 0.11 µM; in experiment [2] it was 1.78 ± 0.62 µM; in experiment [3] it was 3.16 ± 0.88 µM; in experiment [4], 9.03 ± 2.11 µM; in experiment [5] (setting [14]) it was above 100 µM; in experiment [5] (after 48 h of compound treatment), 125 ± 2.65 µM. For the same compound, the IC50 in [9] is 3.02 to 9.03 µM. In addition, the “cell accumulation in G0/G1 phase” value worked out at 70.9% in experiment [10] (1 µM) and 74.4% in [10] (2 µM). In [11], the “Hoechst staining, nuclear morphology (in words)” value is “chromatin condensation and fragmented nuclei”. Besides, the “early apoptotic cells (LR)” value in experiment [6] (1 µM) amounted to 7.68%; in [6] (2 µM), 9.05%. The “late apoptotic cells (UR)” value in experiment [6] (1 µM) was 0.10%; in experiment [6] (2 µM) it was 0.24%. The “necrotic cells (UL)” value in [6] (1 µM) came to 0.00%; in [6] (2 µM), 0.07%. The total apoptosis result in experiment [6] (1 µM) is given as “about 7.78%”; in [6] (2 µM), around 9.29%. Besides, in [6] (Homo sapiens, 1 µM, read-out: live (viable) cells (LL)), the viability at 1 µM was determined as 92.2%. Also, the viability at 2 µM in [6] (setting [13]) is 90.6%. The “PARP cleavage (in words)” value in experiment [7] is “robust cleavage of PARP protein”. Further, the “CDK4 and Cyclin D1 protein levels (in words)” value in [8] is “accumulated”. The “caspase-3 activity (in words)” value in experiment [12] is reported as “increased maximally”.
